Test [1] relates to Candida albicans. Nature of the test: Antifungal activity against Candida albicans SC5314 assessed as reduction in fungal growth incubated for 72 hrs by CLSI protocol based broth microdilution method. Type of test: functional. In general terms: Broth dilution looks for growth in wells or tubes with falling amounts of substance.
For test [2], the system named is Nakaseomyces glabratus. Description: Antifungal activity against Candida glabrata ATCC 0001 assessed as reduction in fungal growth incubated for 72 hrs by CLSI protocol based broth microdilution method. It is filed as functional.
Test [3] relates to Pichia kudriavzevii. Nature of the test: Antifungal activity against Candida krusei ATCC 6258 assessed as reduction in fungal growth incubated for 72 hrs by CLSI protocol based broth microdilution method. It is filed as functional.
The test system of test [4] is Candida tropicalis. Nature of the test: Antifungal activity against Candida tropicalis ATCC 1369 assessed as reduction in fungal growth incubated for 72 hrs by CLSI protocol based broth microdilution method. It is filed as functional.
In test [5] the test system is Aspergillus fumigatus. Nature of the test: Antifungal activity against Aspergillus fumigatus KM8001 assessed as reduction in fungal growth incubated for 72 hrs by CLSI protocol based broth microdilution method. It is filed as functional.
In test [6] the test system is Candida albicans. Description: Antifungal activity against Candida albicans strain 17 assessed as reduction in fungal growth incubated for 72 hrs by CLSI protocol based broth microdilution method. Type of test: functional.
Test [7] relates to Candida albicans. Nature of the test: Antifungal activity against Candida albicans strain CaR assessed as reduction in fungal growth incubated for 72 hrs by CLSI protocol based broth microdilution method. It is filed as functional.
The test system of test [8] is Candida albicans. Description: Antifungal activity against Candida albicans strain 632 assessed as reduction in fungal growth incubated for 72 hrs by CLSI protocol based broth microdilution method. Type of test: functional.
In test [9] the test system is Candida albicans. Description: Antifungal activity against Candida albicans strain 901 assessed as reduction in fungal growth incubated for 72 hrs by CLSI protocol based broth microdilution method. It is filed as functional.
The test system of test [10] is Candida albicans. Nature of the test: Antifungal activity against Candida albicans strain 904 assessed as reduction in fungal growth incubated for 72 hrs by CLSI protocol based broth microdilution method. It is filed as functional.
Test [11] concerns Candida albicans. Description: Induction of apoptosis against Candida albicans ATCC SC5314 assessed as viable cells measured after 48 hrs by Annexin V-FITC/propidium iodide staining based flow cytometry (reference value: 80.78 %). Type of test: functional.
The test system of test [12] is Candida albicans. Description: Induction of apoptosis against Candida albicans ATCC SC5314 assessed as mild apoptotic cells measured after 48 hrs by Annexin V-FITC/propidium iodide staining based flow cytometry (Rvb =0.29 %). Type of test: functional. For orientation: A flow cytometer gives signals particle by particle.
Test [13] has as its system Candida albicans. Nature of the test: Induction of apoptosis against Candida albicans ATCC SC5314 assessed as necrotic cells measured after 48 hrs by Annexin V-FITC/propidium iodide staining based flow cytometry (reference value: 18.22 %). Type of test: functional.
In test [14] the test system is Candida albicans. Description: Induction of apoptosis against Candida albicans ATCC SC5314 assessed as late apoptotic cells measured after 48 hrs by Annexin V-FITC/propidium iodide staining based flow cytometry (reference value: 0.71 %). Type of test: functional.
In test [15] the test system is Candida albicans. Nature of the test: Inhibition of SE/CYP51 in Candida albicans ATCC SC5314 assessed as ergosterol level incubated for 48 hrs by LC/MS analysis. The arrangement: scale not given: the % may be the effect or the level left.
Test [16] concerns Candida albicans. Description: Inhibition of SE/CYP51 in Candida albicans ATCC SC5314 assessed as squalene level incubated for 48 hrs by LC/MS analysis. Also noted: scale not given: the % may be the effect or the level left.
The test system of test [17] is Candida albicans. Nature of the test: Inhibition of SE/CYP51 in Candida albicans ATCC SC5314 assessed as lanosterol level incubated for 48 hrs by LC/MS analysis. The arrangement: scale not given: the % may be the effect or the level left.
Test [18] deals with Candida albicans. Nature of the test: Inhibition of SE/CYP51 in Candida albicans ATCC SC5314 assessed as eburicol level incubated for 48 hrs by LC/MS analysis. Also noted: scale not given: the % may be the effect or the level left.
For test [19], the system named is Candida albicans. Description: Inhibition of SE/CYP51 in Candida albicans ATCC SC5314 assessed as unknown sterol level incubated for 48 hrs by LC/MS analysis. The arrangement: scale not given: the % may be the effect or the level left.
Test [20] concerns the target Lanosterol 14-alpha demethylase (Candida albicans (strain SC5314 / ATCC MYA-2876) (Yeast), UniProt P10613). Nature of the test: Inhibition of CYP51 in Candida albicans ATCC SC5314 measured after 30 mins by HPLC analysis.

Molecules are shown by their SMILES. Values after ≈ are worked out from the molar mass of the structure shown.

Sequence of Lanosterol 14-alpha demethylase (P10613 whole entry): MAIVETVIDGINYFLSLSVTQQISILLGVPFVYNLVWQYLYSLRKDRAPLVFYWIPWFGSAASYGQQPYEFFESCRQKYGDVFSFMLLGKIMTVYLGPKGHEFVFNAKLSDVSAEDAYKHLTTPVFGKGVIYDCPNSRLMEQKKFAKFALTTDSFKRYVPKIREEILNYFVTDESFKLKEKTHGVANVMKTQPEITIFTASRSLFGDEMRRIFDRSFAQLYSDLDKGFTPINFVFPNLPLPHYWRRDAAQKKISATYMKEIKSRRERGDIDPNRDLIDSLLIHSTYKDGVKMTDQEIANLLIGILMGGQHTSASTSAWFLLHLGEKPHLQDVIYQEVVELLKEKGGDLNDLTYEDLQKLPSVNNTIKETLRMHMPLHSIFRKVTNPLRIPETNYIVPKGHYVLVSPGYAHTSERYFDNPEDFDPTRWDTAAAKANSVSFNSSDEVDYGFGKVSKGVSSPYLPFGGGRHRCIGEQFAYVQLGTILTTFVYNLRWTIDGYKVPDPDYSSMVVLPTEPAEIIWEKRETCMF

In the case of `O=C(/C=C/c1ccc2ccccc2c1)NC(Cn1ccnc1)c1ccccc1` (stereo not drawn), the MIC50 in test [1] amounted to 0.5 µg/mL (≈ 1.36 µM); in [2], 0.5 µg/mL (≈ 1.36 µM); in test [3], 1 µg/mL (≈ 2.72 µM); in test [4], 0.5 µg/mL (≈ 1.36 µM); in test [5], 4 µg/mL (≈ 10.9 µM).

`O=C(/C=C/c1cccc2ccccc12)NCC(=O)c1ccccc1`: in [1], the MIC50 came out at 8 µg/mL (≈ 25.4 µM).

In the case of `OC(Cn1cncn1)(Cn1cncn1)c1ccc(F)cc1F` [FLUCONAZOLE], the MIC50 in test [1] is 0.25 µg/mL (≈ 0.816 µM); in [2], 0.5 µg/mL (≈ 1.63 µM); in test [3] it was 0.5 µg/mL (≈ 1.63 µM); in test [4], 0.5 µg/mL (≈ 1.63 µM); in test [5], greater than 8 µg/mL; in [6], greater than 8 µg/mL. Moreover, the MIC50 in test [7], in [8], in test [9] and in test [10] was greater than 8 µg/mL each time. Moreover, the Activity in test [11] stood at 74.25%; in [12], 0.22%; in test [13], 24.61%; in test [14], 0.92%; in [15] it was 26.5%; in test [16], 1.8%. Moreover, the Activity in test [17] was 23.6%; in test [18], 41.5%; in test [19], 6.6%. Also, half-maximal inhibition in test [20] (IC50) was put at 134 nM.

Consider `O=C(NC(Cn1ccnc1)c1ccccc1)c1cccc2ccccc12` (stereo not drawn), for which the MIC50 in test [1] is 0.5 µg/mL (≈ 1.46 µM); in [2] it was 1 µg/mL (≈ 2.93 µM); in test [3], 1 µg/mL (≈ 2.93 µM); in [4], 0.5 µg/mL (≈ 1.46 µM); in [5] it was greater than 8 µg/mL.

On to `O=C(/C=C/c1cccc2ccccc12)NC(C(=O)NCc1cccnc1)c1ccccc1` (stereo not drawn), for which the MIC50 in test [1] was 4 µg/mL (≈ 9.49 µM); in test [2] it was 2 µg/mL (≈ 4.74 µM); in [3], 2 µg/mL (≈ 4.74 µM); in test [4] it was 0.5 µg/mL (≈ 1.19 µM); in [5], greater than 8 µg/mL.

With `O=C(/C=C/c1cccc2ccccc12)NC(Cn1cncn1)C(=O)c1ccccc1` (stereo not drawn), the MIC50 in test [1] was 0.25 µg/mL (≈ 0.631 µM); in [2], 0.25 µg/mL (≈ 0.631 µM); in test [3], 0.5 µg/mL (≈ 1.26 µM); in test [4] it was 0.125 µg/mL (≈ 0.315 µM); in [5], 4 µg/mL (≈ 10.1 µM).

For the compound `O=C(/C=C/c1cccc2ccccc12)NC(Cn1ccnc1)c1ccccc1` (stereo not drawn), the MIC50 is 0.125 µg/mL (≈ 0.34 µM) in [1]; 0.5 µg/mL (≈ 1.36 µM) in [2]; 0.125 µg/mL (≈ 0.34 µM) in test [3]; 0.25 µg/mL (≈ 0.68 µM) in test [4]; 2 µg/mL (≈ 5.44 µM) in test [5]; 4 µg/mL (≈ 10.9 µM) in test [6]. Moreover, the MIC50 in [7] is 4 µg/mL (≈ 10.9 µM); in test [8], greater than 8 µg/mL; in test [9] it was 4 µg/mL (≈ 10.9 µM); in [10], greater than 8 µg/mL.

Take `NC(=O)/C=C/c1cccc2ccccc12`: the MIC50 in [1] came to 32 µg/mL (≈ 162 µM).

Take `O=C(NC(Cn1cncn1)C(=O)c1ccccc1)c1cccc2ccccc12` (stereo not drawn): the MIC50 in test [1] was 0.5 µg/mL (≈ 1.35 µM); in test [2], 0.5 µg/mL (≈ 1.35 µM); in test [3], 0.5 µg/mL (≈ 1.35 µM); in [4] it was 0.25 µg/mL (≈ 0.675 µM); in test [5] it was greater than 8 µg/mL.

With `O=C(/C=C/c1cccc2ccccc12)NCc1ccccc1`, the MIC50 in [1] amounted to 8 µg/mL (≈ 27.8 µM).

Take `O=C(NC(Cn1ccnc1)c1ccccc1)c1ccc2ccccc2c1` (stereo not drawn): the MIC50 was 0.5 µg/mL (≈ 1.46 µM) in test [1]; 0.25 µg/mL (≈ 0.732 µM) in test [2]; 0.5 µg/mL (≈ 1.46 µM) in [3]; 0.5 µg/mL (≈ 1.46 µM) in test [4]; greater than 8 µg/mL in [5].

On to `O=C(/C=C/c1cccc2ccccc12)NC(C(=O)NCc1ccncc1)c1ccccc1` (stereo not drawn), for which the MIC50 in test [1] was 2 µg/mL (≈ 4.74 µM); in [2], 0.5 µg/mL (≈ 1.19 µM); in test [3], 4 µg/mL (≈ 9.49 µM); in test [4], 2 µg/mL (≈ 4.74 µM); in test [5], greater than 8 µg/mL.

In the case of `O=C(/C=C/c1cccc2ccccc12)NC(Cn1ccnc1)C(=O)c1ccccc1` (stereo not drawn), the MIC50 is 0.25 µg/mL (≈ 0.632 µM) in test [1]; 0.5 µg/mL (≈ 1.26 µM) in test [2]; 1 µg/mL (≈ 2.53 µM) in test [3]; 0.5 µg/mL (≈ 1.26 µM) in test [4]; greater than 8 µg/mL in test [5].

In the case of `O=C(/C=C/c1ccc2ccccc2c1)NC(C(=O)NCc1ccncc1)c1ccccc1` (stereo not drawn), the MIC50 in test [1] was 1 µg/mL (≈ 2.37 µM); in test [2], 1 µg/mL (≈ 2.37 µM); in test [3], 2 µg/mL (≈ 4.74 µM); in [4] it was 1 µg/mL (≈ 2.37 µM); in test [5] it was greater than 8 µg/mL.

One may read the MIC50 as the lowest concentration that inhibits either 50% of growth or 50% of the strains tested, depending on the study. One may read the IC50 as the point on the concentration scale where inhibition reaches its midpoint.

Source of the values: ChEMBL document CHEMBL5038624, “Construction and activity evaluation of novel dual-target (SE/CYP51) anti-fungal agents containing amide naphthyl structure” (Eur J Med Chem, 2022).
